According to US5352770A, “Porcine derived novel physiologically active peptide” (priority 1990, dated 1994):
Positions of bridges follow the written chain, without caps; N, C: chain ends. No end group written: not given here.

Experiments:
Male SD rats = experiment: Natriuretic and hypotensive actions in anesthetized rats after intravenous administration; assay type: in vivo, rat; conditions: for Blood pressure drop / Cl- excretion / K+ excretion / Na+ excretion / Urine excretion: change in 15 min after administration vs before, mean±S.D., 4 animals
Description: Male SD rats (body weight: 230-290 g) were anesthetized by intraperitoneal injection with 65 mg/kg of pentobarbital and fitted with a tracheotomy tube (PE-240 of Clay Adams) in order to insure the respiratory tract. A cannula (PE-50) for blood pressure measurement was inserted into the hip artery and a Ringer's solution was injected at a steady rate of 1.8 ml/hr through a cannula (PE-10) inserted into the hip vein. A urinary sample was taken into a test tube through a cystic cannula in the form of a Silastic tube (i.d. 0.02 inch; o.d. 0.037 inch; Dow Corning). Urinary samples were taken both for 15 minutes before the administration of the test substance and until 15 minutes after the administration at 5 min interval, followed by subsequent sampling at predetermined time intervals. By comparing the amount of each sample with the concentration of an electrolyte in it, as well as by measuring the blood pressure changes, the actions of the test substance were evaluated.
The test substance CNP was dissolved in a predetermined amount in 0.1 N acetic acid and thereafter neutralized with a 1/10 volume of 1.3 M Tris solution. The sample was diluted with 50 μl of sterilized physiological saline and administered via the cervical vein.
Data are shown in terms of mean±S.D., as obtained from each group of 4 animals, of the change that occurred in the 15-min period from the administration of the test substance, as compared to the state before the administration.

[1] = test system: cultured vascular smooth muscle cell line; experiment: cGMP production in cultured vascular smooth muscle cell line; assay type: cell-based
VSMC of rats = experiment: Cell growth suppressing activity ([3H]thymidine uptake); assay type: cell-based, rat; conditions: cultured vascular smooth muscle cell line
Description: Cell growth suppressing ability was evaluated in accordance with the method of Kariya et al. (Atherosclerosis, 80, 143-147, 1990) by measuring the uptake of ^3 H thymidine into cells as an indicator of DNA synthesis activity using VSMC of rats. Cells tuned to a stationary phase were incubated in 1% serum at 37° C. for 14 h together with various concentrations of α-hANP or CNP; following the addition of 37 KBq/ml [^3 H]thymidine, the incubation was continued for another 4 h. The radioactivity of [^3 H] thymidine incorporated into the cells was measured. The values of measurement were such that the radioactivity of [^3 H] thymidine for the case where only 1% serum was added in the absence of peptide was taken as 100%, with the percent suppression due to the peptide at the respective concentrations being accordingly calculated.

chick rectum = experiment: Chick rectum relaxant activity; conditions: fold activity versus α-hANP
Description: Chick rectum relaxant activity was measured in accordance with the method of Curtie et al. (Cuttle et al., Nature, 221, 1-13, 1983).

rats = conditions: cited from earlier work

Row | Compound | Blood pressure drop (Male SD rats; CNP dose 12 nmol/kg i.v.) [mmHg] | Cl- excretion (Male SD rats; CNP dose 12 nmol/kg i.v.) [%] | K+ excretion (Male SD rats; CNP dose 12 nmol/kg i.v.) [%] | Na+ excretion (Male SD rats; CNP dose 12 nmol/kg i.v.) [%] | Urine excretion (Male SD rats; CNP dose 12 nmol/kg i.v.) [%] | Blood pressure drop (Male SD rats; CNP dose 80 nmol/kg i.v.) [mmHg] | Cl- excretion (Male SD rats; CNP dose 80 nmol/kg i.v.) [%] | K+ excretion (Male SD rats; CNP dose 80 nmol/kg i.v.) [%] | Na+ excretion (Male SD rats; CNP dose 80 nmol/kg i.v.) [%] | Urine excretion (Male SD rats; CNP dose 80 nmol/kg i.v.) [%] | Blood pressure drop (Male SD rats; CNP dose 160 nmol/kg i.v.) [mmHg] | Cl- excretion (Male SD rats; CNP dose 160 nmol/kg i.v.) [%] | K+ excretion (Male SD rats; CNP dose 160 nmol/kg i.v.) [%] | Na+ excretion (Male SD rats; CNP dose 160 nmol/kg i.v.) [%] | Urine excretion (Male SD rats; CNP dose 160 nmol/kg i.v.) [%] | Natriuretic and hypotensive actions (in words) (Male SD rats; rats, intravenous, 12-160 nmol/kg) | Activity for promoting the production of cGMP (in words) [1] | Growth inhibiting action on vascular smooth muscle cells (in words) (VSMC of rats) | Chick rectum relaxant activity relative to α-hANP (chick rectum) | Natriuretic and hypotensive actions compared with α-hANP (in words) (rats)
1 | CC[C@H](C)[C@@H]1NC(=O)[C@H](CCCNC(=N)N)NC(=O)[C@H](CC(=O)O)NC(=O)[C@H](CC(C)C)NC(=O)[C@H](CCCCN)NC(=O)[C@H](CC(C)C)NC(=O)CNC(=O)[C@H](Cc2ccccc2)NC(=O)[C@@H](NC(=O)CNC(=O)[C@H](CCCCN)NC(=O)[C@H](CO)NC(=O)[C@H](CC(C)C)NC(=O)CN)CSSC[C@@H](C(=O)O)NC(=O)CNC(=O)[C@H](CC(C)C)NC(=O)CNC(=O)[C@H](CO)NC(=O)[C@H](CCSC)NC(=O)[C@H](CO)NC(=O)CNC1=O [CNP] | 6.7 ± 1.7 | 228 ± 32 | 220 ± 43 | 192 ± 28 | 229 ± 38 | 16.7 ± 4.2 | 301 ± 83 | 167 ± 29 | 286 ± 125 | 251 ± 62 | 14.2 ± 5.2 | 400 ± 45 | 238 ± 46 | 371 ± 69 | 421 ± 40 | those actions increased in a dose-dependent manner | found to have an activity for promoting the production of cyclic guanosine monophosphate | had a growth inhibiting action | 3 - 4 times | –
2 | pBNP: porcine-derived brain natriuretic peptide, single-stranded peptide composed of 26 amino acids having a single S--S bond (DSGCFGRRLDRIGSLSGLGCNVLRRY; disulfide 4-20 (inferred); UniProt P07634 106-131, looked up) | – | – | – | – | – | – | – | – | – | – | – | – | – | – | – | – | – | – | – | comparable levels of natriuretic and hypotensive actions to α-hANP
